Results as given in patent publication US6194465A, “Benzamide therapeutics for the treatment of inflammatory bowel disease” (priority 1999, dated 2001).
Entries after “also recorded” stand apart in the source; their conditions may differ.

Tests used:
[1] = tested on: inflammatory bowel disease; details: cited from earlier work; for effectiveness in small bowel inflammation / side-effects (in words): IBD patients
[2] = tested on: TNBS-induced colonic inflammation; assay: TNBS model, Compound N and comparison with 5-ASA; type: in vivo, rats
Procedure: Male Sprague-Dawley rats (200-250 g) were housed in standard cages (2 per cage) and fed rat chow and tap water ad libitum. After an overnight fast, rats were brought into the laboratory and randomized into treatment groups. Colitis was induced by intrarectal administration of 0.5 ml of TNBS solution (50 mg/kg in 50% ethanol) using a 1 ml syringe attached to a 5 cm polyethylene catheter. Control animals received saline (0.9%) or a 1 % methyl cellulose suspension at identical time points.
Three days after TNBS administration, the rats were sacrificed and the colons excised and opened longitudinally.
Compound N was subjected to a series of TNBS activity tests as just described.
Groups of rats (11 rats/group) were administered Compound N (10 mg/kg po), 5-ASA (10 mg/kg po), 5-ASA (300 mg/kg po), or the methylcellulose vehicle 1 hour prior to the TNBS enema. After 3 days the rats were sacrificed and the colonic damage morphologically evaluated.
Groups of rats, were administered increasing doses of Compound N (0-100 mg/kg-po) 1 hour prior to TNBS enema. In these experiments the endpoint was macroscopic assessment.

[3] = tested on: TNBS induced model of colitis; details: only if multiple high doses administered intra-rectally; cited from earlier work
[4] = PK parameter estimates, 30 mg/kg po (Table 1); type: in vivo, rats; details: Compound N relative to Compound A, rats, 30 mg/kg po; 30 mg/kg
Procedure: The bioavailability of compound N is depicted in FIG. 10 as well. |(NRTs Dosed 30 mg/kg po in 1% Methyl Cellulose, n = 3 rats/NRT)

[5] = tested on: inducible nitric oxide synthetase (iNOS); details: cited from earlier work
lethality induced by LPS = details: various rodent models of septic shock; cited from earlier work
[6] = following ischemia; cited from earlier work
[7] = tested on: senescence accelerated mice; details: cited from earlier work
[8] = tested on: adjuvant induced arthritis; assay: Rat adjuvant induced arthritis model of chronic inflammation; type: in vivo; details: Compound A 100 mg/kg po or dexamethasone 0.1 mg/kg, daily 7 days, vs adjuvant
Procedure: Confirmation of the anti-inflammatory activity of Compound A was sought in another related biological test-the rat adjuvant induced arthritis model of chronic inflammation. This model was selected because almost all of the anti-IBD agents also show efficacy in standard arthritis models. In this model Compound A was tested at 100 mg/kg, po in a 1 % methyl cellulose suspension. On day 0 all animals received an injection of either Mycobacterium butyricum (100μL, 20 mg/mL in mineral oil) or mineral oil in the base of the tail. 14 days after this injection, rat paws were measured and all the rats were randomized into 3 treatment groups of 8. A control adjuvant group (group without further treatment), a group to be treated with dexamethasone (steroid reference) and a group to treated with Compound A. Rats received Compound A 100 mg/kg, po, or dexamethasone 0.1 mg/kg, op, daily until day 21 (7 days dosing). On day 21 rats were sacrificed. Paw measurements were taken after 5 and 7 days treatment.

[9] = 0-100 mg/kg po, 1 hour prior to TNBS

For `Nc1ccc(O)c(C(=O)O)c1` [Compound 5-ASA], the “time to full efficacy” value ([1]; 5-ASA therapy) is given as 6-8 weeks, the “response in Crohn's disease” value [1] is given as “poor” and the “response in early ulcerative colitis” value [1] is given as “fair to mild”. The “response in severe ulcerative colitis” value [1] was “poor”, the “effect on TNBS-induced colonic inflammation, 5-ASA 10 mg/kg” value ([2]; 10 mg/kg po, 1 hour before TNBS) was “no effect” and the “effect on TNBS-induced colonic inflammation, 5-ASA 300 mg/kg” value ([2]; 300 mg/kg po, 1 hour before TNBS) was “no effect”. For the same compound, the “protection, 5-ASA intra-rectal” value [3] was 50%.

For `CC(C)(C)NC(=O)c1ccc(N)cc1` [Compound N, N-tert-butyl-4-aminobenzamide], the “colonic morphological score, dose-response (in words)” value [2, 9] was “dose=dependent reduction in the colonic morphological score”, the significance of protection [2, 9] was “only significant (p <0.05) at the 10, 30 and 100 mg/kg doses” and the “efficacy, 10 mg/kg po, Compound N” value ([2]; 10 mg/kg po single dose, 1 hour before TNBS) was “excellent efficacy”. For the same compound, the “activity relative to Compound A” value ([2]; TNBS activity tests) was “better activity than that of Compound A”, the protection ([2]; TNBS activity tests) was 75% and the “clearance / systemic exposure / variability (in words)” value [4] was “lower clearance; also recorded: overall greater systemic exposure; also recorded: relatively low variability in plasma concentration”.

In the case of `CC(C)(C)[N+]([O-])=Cc1ccccc1` [PBN, α-phenyl-t-butyl nitrone], the “block of iNOS” value [5] is given as “block inducible nitric oxide synthetase”, the “protection against lethality induced by LPS” value (lethality induced by LPS) is given as “consistent and well documented protection” and the “trapping of reactive oxygen species and/or secondary free radicals” value [6] is given as “trap reactive oxygen species and/or secondary free radicals”. The “increase of life span” value [7] was “one third”.

For `C[C@@H]1C[C@H]2[C@@H]3CCC4=CC(=O)C=C[C@]4(C)[C@@]3(F)[C@@H](O)C[C@]2(C)[C@@]1(O)C(=O)CO` [dexamethasone, reference compound], the “inhibition of the inflammatory response” value [8] was “significant inhibition of the inflammatory response (p<0.005)”.

For `O=C(O)c1cc(/N=N/c2ccc(O)c(C(=O)O)c2)ccc1O` [olsalazine], the “effectiveness in small bowel inflammation” value [1] is listed as “Neither sulfasalazine nor olsalazine are effective” and the “side-effects (in words)” value [1] is listed as “side effects are reduced”.

For `Nc1ccc(S(=O)(=O)Nc2ccccn2)cc1` [sulfapyridine], the “side-effects (in words)” value [1] is given as “significant side-effects such as reversible sperm abnormalities, dyspepsia or allergic reactions to the sulpha component” and the “patients who cannot tolerate” value ([1]; sulfapyridine component of sulfasalazine) is given as “at least 20 % of patients”.

In the case of `O=C(O)c1cc(/N=N/c2ccc(S(=O)(=O)Nc3ccccn3)cc2)ccc1O` [sulfasalazine], the “response in Crohn's disease” value [1] is given as “poor”, the “effectiveness in small bowel inflammation” value [1] is given as “Neither sulfasalazine nor olsalazine are effective” and the “response in early ulcerative colitis” value [1] is given as “fair to mild”. For the same compound, the “response in severe ulcerative colitis” value [1] was “poor”.
